Measured values: patent publication US10053468B2, “Heterocyclic compound” (TAKEDA PHARMACEUTICAL COMPANY LIMITED, priority 2013, dated 2018)
Read-outs that look alike come from different tables or passages of the source.

Experiments:
[1] = target: T1, RORγt (Homo sapiens, UniProt P51449); assay: Cofactor recruitment test (Alpha Screen, biotinylated SRC-1 peptide); assay type: biochemical; conditions: read-out: Signal value inhibitory rate at test compound 1 μM (%)
T1 sequence (P51449 1-497 isoform P51449-2): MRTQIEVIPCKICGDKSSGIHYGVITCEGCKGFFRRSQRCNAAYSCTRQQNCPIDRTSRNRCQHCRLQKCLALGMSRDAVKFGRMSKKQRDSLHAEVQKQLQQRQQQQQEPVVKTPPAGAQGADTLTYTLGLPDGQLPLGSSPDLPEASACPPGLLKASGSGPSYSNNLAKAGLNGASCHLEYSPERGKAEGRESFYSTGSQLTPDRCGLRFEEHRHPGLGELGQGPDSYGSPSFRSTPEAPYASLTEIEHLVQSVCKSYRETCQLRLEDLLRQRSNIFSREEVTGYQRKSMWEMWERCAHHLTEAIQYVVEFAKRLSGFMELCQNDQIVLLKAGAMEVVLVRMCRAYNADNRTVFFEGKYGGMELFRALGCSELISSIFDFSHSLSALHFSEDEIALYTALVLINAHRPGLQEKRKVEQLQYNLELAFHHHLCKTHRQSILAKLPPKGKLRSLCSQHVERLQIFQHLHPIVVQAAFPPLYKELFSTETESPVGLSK
Experimental: Cofactor Recruitment Test
Cofactor recruitment test was performed by Alpha Screen (Histidine Detection Kit, PerkinElmer) method. First, a test compound was diluted with an assay buffer (50 mM Tris-HCl (pH 7.5), 50 mM KCl, 1 mM DTT, 0.1% BSA) and added to a 384 well plate by 5 μL. […] The mixture was stood in a dark place for 1 hr, and the signal value was measured by Envision (PerkinElmer).

[2] = target: T1, RORγt; assay: RORγt binding test using fluorescent-labeled cholesterol (TR-FRET); conditions: read-out: Binding inhibitory rate of fluorescent-labeled cholesterol to RORγt at test compound 1 μM (%)
In short: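 After 20 min at room temperature with His-tagged RORγt and BODIPY-cholesterol in pH 7.5 Tris buffer (NaCl, DTT, BSA), compound wells got terbium anti-His antibody for another 20 min. Time-resolved FRET was read with excitation 320 nm, emission 520 nm and a 100 µs delay.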

[3] = target: T1, RORγt; assay: Jurkat reporter test (human IL-17 ROR response element luciferase, RORγt vector); assay type: cell-based; conditions: read-out: Luminescence level inhibitory rate at test compound 3 μM (%)
In short: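 Luminescence (Bright-Glo, 10 min, RT) was measured after overnight compound treatment of electroporated Jurkat cells (1350 V, 10 ms interval, 3 pulses). The reaction medium was RPMI with 10% lipid-reduced FCS, 10 mM HEPES (pH 7.5) and 5 μM lovastatin.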

[4] = target: T1, RORγt; assay: RORγt binding test using fluorescent-labeled synthetic ligand (TR-FRET); conditions: read-out: Binding inhibitory rate of fluorescent-labeled synthetic ligand to RORγt at test compound 1 μM (%)
Experimental: RORγt Binding Test Using Fluorescent-labeled Synthetic Ligand
The binding activity of the test compound to RORγt was measured by a time resolved fluorescence resonance energy transfer method (TR-FRET) utilizing histidine-tagged RORγt, fluorescent-labeled synthetic ligand, and terbium-labeled anti-histidine tag antibody (Invitrogen). First, a test compound diluted with an assay buffer (20 mM Tris-HCl (pH 7.5), 100 mM NaCl, 1 mM DTT, 0.1% BSA) was added to a 384 well plate by 3 μL. Then, RORγt diluted with an assay buffer to 240 nM was added by 3 μL, after which fluorescent-labeled synthetic ligand diluted with the assay buffer to 12 μM was added by 3 μL, and the mixture was stood at room temperature for 20 min. Thereafter, a terbium-labeled anti-histidine tag antibody diluted with the assay buffer to 8 nM was added by 3 μL. The mixture was stood at room temperature for 20 min, and fluorescence intensity (excitation wavelength 320 nm, fluorescence wavelength 520 nm, delay time 100 microseconds) was measured by Envision (PerkinElmer).

[5] = test compound 3 μM, Jurkat cells

| inhibition at 3 µM [3, 5] [%] | SMILES | inhibition at 1 µM [1] [%] | inhibition at 1 µM [2] [%] | inhibition at 1 µM [4] [%] | inhibition at 3 µM ([3]; Jurkat) [%] |
| --- | --- | --- | --- | --- | --- |
| 100 | COCC(C)(C)c1ccc(NC(=O)[C@H]2c3ccc(OC)cc3CCN2C(=O)c2cc(O)no2)cc1F [Example 69, (1R)-N-(3-fluoro-4-(1-methoxy-2-methylpropan-2-yl)phenyl)-2-((3-hydroxy-1,2-oxazol-5-yl)carbonyl)-6-methoxy-1,2,3,4-tetrahydroisoquinoline-1-carboxamide] | 83 | 102 | 101 | – |
| – | COCc1ccc2c(c1)CCN(C(=O)Cc1cc(O)no1)[C@H]2C(=O)Nc1cc(F)c([Si](C)(C)C)c(F)c1 [Example 121, (1R)-N-(3,5-difluoro-4-(trimethylsilyl)phenyl)-2-((3-hydroxy-1,2-oxazol-5-yl)acetyl)-6-(methoxymethyl)-1,2,3,4-tetrahydroisoquinoline-1-carboxamide] | 100 | 101 | 101 | 103 |
| 99.6 | COc1ccc2c(c1)CCN(C(=O)Cc1cc(O)no1)[C@H]2C(=O)Nc1cc(F)c2c(c1)CCC2(C)C [Example 45, (1R)-N-(7-fluoro-1,1-dimethyl-2,3-dihydro-1H-inden-5-yl)-2-((3-hydroxy-1,2-oxazol-5-yl)acetyl)-6-methoxy-1,2,3,4-tetrahydroisoquinoline-1-carboxamide] | 76.9 | 103 | 102 | – |
| – | COc1ccc2c(n1)CCN(C(=O)c1cc(O)no1)[C@H]2C(=O)Nc1ccc([Si](C)(C)C)c(F)c1 [Example 79, (5R)-N-(3-fluoro-4-(trimethylsilyl)phenyl)-6-((3-hydroxy-1,2-oxazol-5-yl)carbonyl)-2-methoxy-5,6,7,8-tetrahydro-1,6-naphthyridine-5-carboxamide] | 97 | 102 | 102 | 102 |
| – | CCOc1ccc2c(n1)CCN(C(=O)c1cc(O)no1)[C@H]2C(=O)Nc1cc(F)c([Si](C)(C)C)c(F)c1 [Example 126, (5R)-N-(3,5-difluoro-4-(trimethylsilyl)phenyl)-2-ethoxy-6-((3-hydroxy-1,2-oxazol-5-yl)carbonyl)-5,6,7,8-tetrahydro-1,6-naphthyridine-5-carboxamide] | 100 | 101 | 101 | 102 |
| 101 | COc1ccc2c(n1)CCN(C(=O)Cc1cc(O)no1)[C@H]2C(=O)Nc1ccc(C(C)(C)C)c(F)c1 [Example 78, (5R)-N-(4-tert-butyl-3-fluorophenyl)-6-((3-hydroxy-1,2-oxazol-5-yl)acetyl)-2-methoxy-5,6,7,8-tetrahydro-1,6-naphthyridine-5-carboxamide] | 89 | 101 | 102 | – |
| – | COCc1ccc2c(c1)CCN(C(=O)c1cc(O)no1)[C@H]2C(=O)Nc1ccc([Si](C)(C)C)c(F)c1 [Example 107, (1R)-N-(3-fluoro-4-(trimethylsilyl)phenyl)-2-((3-hydroxy-1,2-oxazol-5-yl)carbonyl)-6-(methoxymethyl)-1,2,3,4-tetrahydroisoquinoline-1-carboxamide] | 100 | 103 | 102 | 102 |
| – | COCc1ccc2c(c1)CCN(C(=O)CCCC(=O)O)[C@H]2C(=O)Nc1ccc([Si](C)(C)C)c(F)c1 [Example 110, 5-((1R)-1-((3-fluoro-4-(trimethylsilyl)phenyl)carbamoyl)-6-(methoxymethyl)-3,4-dihydroisoquinolin-2 (1H)-yl)-5-oxopentanoic acid] | 100 | 102 | 102 | 103 |
| 100 | COc1ccc2c(c1)CCN(C(=O)Cc1cc(O)no1)[C@H]2C(=O)Nc1ccc(C(C)(C)C)c(C#N)c1 [Example 65, (1R)-N-(4-tert-butyl-3-cyanophenyl)-2-((3-hydroxy-1,2-oxazol-5-yl)acetyl)-6-methoxy-1,2,3,4-tetrahydroisoquinoline-1-carboxamide] | 98 | 102 | 101 | – |
| – | COc1ccc2c(c1)OCCN(C(=O)Cc1cc(O)no1)[C@H]2C(=O)Nc1cc(F)c([Si](C)(C)C)c(F)c1 [Example 56, (5R)-N-(3,5-difluoro-4-(trimethylsilyl)phenyl)-4-((3-hydroxy-1,2-oxazol-5-yl)acetyl)-8-methoxy-2,3,4,5-tetrahydro-1,4-benzoxazepine-5-carboxamide] | 61.3 | 101 | 102 | 99.9 |
| 101 | COc1ccc2c(c1)CCN(C(=O)Cc1cc(O)no1)[C@H]2C(=O)Nc1cc(F)c(C(C)(C)C)c(F)c1 [Example 43, (1R)-N-(4-tert-butyl-3,5-difluorophenyl)-2-((3-hydroxy-1,2-oxazol-5-yl)acetyl)-6-methoxy-1,2,3,4-tetrahydroisoquinoline-1-carboxamide] | 88.3 | 102 | 102 | – |
| 97 | CCOCC(C)(C)c1c(F)cc(NC(=O)[C@H]2c3ccc(OC)cc3CCN2C(=O)CCCC(=O)O)cc1F [Example 172, 5-((1R)-1-((4-(1-ethoxy-2-methylpropan-2-yl)-3,5-difluorophenyl)carbamoyl)-6-methoxy-3,4-dihydroisoquinolin-2(1H)-yl)-5-oxopentanoic acid] | 82 | 101 | 101 | – |
| – | CC[Si](C)(C)c1c(F)cc(NC(=O)[C@H]2c3ccc(OC)nc3CCN2C(=O)c2cc(O)no2)cc1F [Example 111, (5R)-N-(4-(ethyl (dimethyl)silyl)-3,5-difluorophenyl)-6-((3-hydroxy-1,2-oxazol-5-yl)carbonyl)-2-methoxy-5,6,7,8-tetrahydro-1,6-naphthyridine-5-carboxamide] | 99 | 103 | 101 | 103 |
| – | COc1ccc2c(n1)CCN(C(=O)Cc1cc(O)no1)[C@H]2C(=O)Nc1ccc([Si](C)(C)C)c(F)c1 [Example 80, (5R)-N-(3-fluoro-4-(trimethylsilyl)phenyl)-6-((3-hydroxy-1,2-oxazol-5-yl)acetyl)-2-methoxy-5,6,7,8-tetrahydro-1,6-naphthyridine-5-carboxamide] | 97 | 102 | 102 | 100 |
| – | CC[Si](C)(C)c1c(F)cc(NC(=O)[C@H]2c3ccc(OC)cc3CCN2C(=O)CCCC(=O)O)cc1F [Example 86, 5-((1R)-1-((4-(ethyl(dimethyl)silyl)-3,5-difluorophenyl)carbamoyl)-6-methoxy-3,4-dihydroisoquinolin-2(1H)-yl)-5-oxopentanoic acid] | 98 | 103 | 102 | 101 |
| – | CCOc1ccc2c(n1)CCN(C(=O)Cc1cc(O)no1)[C@H]2C(=O)Nc1ccc([Si](C)(C)C)c(F)c1 [Example 151, (5R)-2-ethoxy-N-(3-fluoro-4-(trimethylsilyl)phenyl)-6-((3-hydroxy-1,2-oxazol-5-yl)acetyl)-5,6,7,8-tetrahydro-1,6-naphthyridine-5-carboxamide] | 99 | 99 | 102 | 102 |
